Reference: the supplement of paper PMC10331698
± gives the standard deviation of the averaged measurements.

Legend:
Experiment in all cases: level (log10 ratio to DMSO vehicle control); higher = higher biomarker level / cell amount than vehicle control
Settings in all cases: in DMSO
Heptafluorobutyl iodide = compound: FC(F)(F)C(F)(F)C(F)(F)CI [Heptafluorobutyl iodide]
Description: (§1)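 BioMAP Diversity Plus panel of 12 human primary cell co-culture systems (3C, 4H, LPS, SAg, BT, BF4T, BE3C, CASM3C, HDF3CGF, KF3CT, MyoF, Mphg). Compounds were added 1 h before stimulation and left for 24 h (MyoF 48 h; BT 72 h for soluble read-outs or 6 d for IgG). Biomarkers were read by ELISA, cytotoxicity by SRB, PBMC viability and proliferation by Alamar Blue. Each well value was divided by the mean of 8 DMSO control wells on the same plate and log10 transformed; duplicate blinded samples were tested at 4 concentrations.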

Octafluoroadipamide = compound: NC(=O)C(F)(F)C(F)(F)C(F)(F)C(F)(F)C(N)=O [Octafluoroadipamide]
Description: as §1

Nonafluoropentanamide = compound: NC(=O)C(F)(F)C(F)(F)C(F)(F)C(F)(F)F [Nonafluoropentanamide]
Description: as §1

[1] = compound: NC(=O)C(F)(F)C(F)(F)C(F)(F)C(F)F
Description: as §1

[2] = compound: O=C(O)C(F)(F)C(F)(F)C(F)(F)C(F)(F)C(F)(F)C(F)(F)C(F)(F)C(F)(F)C(F)(F)C(F)F [11-H-Perfluoroundecanoic acid]
Description: as §1

[3] = compound: O=S(=O)(O)CCC(F)(F)C(F)(F)C(F)(F)C(F)(F)C(F)(F)C(F)(F)F [6:2 Fluorotelomer sulfonic acid]
Description: as §1

Hexafluoroamylene glycol = compound: OCC(F)(F)C(F)(F)C(F)(F)CO [Hexafluoroamylene glycol]
Description: as §1

Row | Test System | level (log10) (Heptafluorobutyl iodide; 6700 nM) | level (log10) (Heptafluorobutyl iodide; 20000 nM) | level (log10) (Heptafluorobutyl iodide; 60000 nM) | level (log10) (Octafluoroadipamide; 6700 nM) | level (log10) (Octafluoroadipamide; 20000 nM) | level (log10) (Octafluoroadipamide; 60000 nM) | level (log10) (Nonafluoropentanamide; 6700 nM) | level (log10) (Nonafluoropentanamide; 20000 nM) | level (log10) (Nonafluoropentanamide; 60000 nM) | level (log10) ([1]; 6700 nM) | level (log10) ([1]; 20000 nM) | level (log10) ([1]; 60000 nM) | level (log10) ([2]; 6700 nM) | level (log10) ([2]; 20000 nM) | level (log10) ([3]; 6700 nM) | level (log10) ([3]; 20000 nM) | level (log10) ([3]; 60000 nM) | level (log10) (Hexafluoroamylene glycol; 6700 nM) | level (log10) (Hexafluoroamylene glycol; 20000 nM) | level (log10) (Hexafluoroamylene glycol; 60000 nM)
1 | BE3C:IL-1alpha | 0.0015 ± 0.037 | -0.0225 ± 0.019 | -0.001 ± 0.014 | 0.0085 ± 0.012 | -0.0105 ± 0.0064 | 0.0145 ± 0.033 | -0.002 ± 0.0071 | 0.002 ± 0.014 | 0.0105 ± 0.00071 | 0.0235 ± 0.016 | -0.008 ± 0.0085 | 0.015 ± 0.065 | 0.0285 ± 0.016 | -0.42 ± 0.011 | -0.0095 ± 0.021 | -0.005 ± 0.0099 | -0.0005 ± 0.0078 | -0.002 ± 0.0085 | 0.002 | 0.0135 ± 0.0092
2 | SAg:Proliferation | -0.056 ± 0.037 | 0.029 ± 0.028 | -0.072 ± 0.0042 | 0.022 ± 0.035 | -0.0255 ± 0.005 | 0.033 ± 0.0099 | -0.01 ± 0.052 | -0.05 ± 0.034 | -0.0945 ± 0.1 | -0.0135 ± 0.018 | 0.0105 ± 0.0064 | 0.033 ± 0.018 | -0.0145 ± 0.03 | 0.019 ± 0.0071 | -0.019 ± 0.027 | -0.0255 ± 0.023 | -0.0225 ± 0.0035 | -0.024 ± 0.041 | -0.0395 ± 0.013 | -0.039 ± 0.0042
3 | BF4T:PAI-I | 0.0005 ± 0.0092 | -0.002 ± 0.0042 | 0.0065 ± 0.021 | -0.0005 ± 0.0035 | -0.0035 ± 0.00071 | 0.015 ± 0.023 | -0.0145 ± 0.0064 | -0.0055 ± 0.0035 | 0.0015 ± 0.021 | -0.0005 ± 0.019 | -0.0095 ± 0.021 | 0.004 ± 0.0085 | -0.0455 ± 0.025 | -0.146 ± 0.034 | 0.0075 ± 0.005 | -0.0235 ± 0.012 | -0.0265 ± 0.0078 | -0.0025 ± 0.013 | -0.002 ± 0.021 | 0.0065 ± 0.0064
4 | LPS:SRB | -0.0035 ± 0.0021 | -0.0095 ± 0.0021 | 0.0045 ± 0.021 | -0.003 ± 0.011 | -0.0075 ± 0.0092 | 0.0015 ± 0.0035 | 0.0015 ± 0.011 | -0.0065 ± 0.005 | -0.003 ± 0.0042 | -0.011 ± 0.0071 | -0.006 ± 0.0042 | -0.0105 ± 0.00071 | 0.0045 ± 0.013 | 0.0055 ± 0.005 | -0.0055 ± 0.00071 | -0.0005 ± 0.0064 | -0.001 ± 0.023 | -0.004 ± 0.0028 | -0.0095 ± 0.015 | 0.002 ± 0.018
5 | LPS:sPGE2 | -0.0175 ± 0.026 | 0.0095 ± 0.064 | 0.0105 ± 0.064 | 0.083 ± 0.037 | -0.04 ± 0.018 | -0.0165 ± 0.026 | -0.0015 ± 0.013 | -0.0115 ± 0.016 | -0.022 ± 0.0099 | -0.0045 ± 0.028 | -0.0005 ± 0.005 | 0.0315 ± 0.036 | 0.018 ± 0.023 | -0.006 ± 0.042 | -0.008 ± 0.023 | -0.0215 ± 0.047 | -0.0345 ± 0.029 | -0.0265 ± 0.022 | -0.0255 ± 0.071 | -0.0325 ± 0.054
6 | BE3C:CD54/ICAM-1 | 0.013 ± 0.021 | 0.005 ± 0.0071 | 0.0085 ± 0.0078 | -0.0135 ± 0.025 | -0.0185 ± 0.016 | 0.016 ± 0.034 | 0.0025 ± 0.012 | -0.009 ± 0.028 | 0.0025 ± 0.03 | -0.006 ± 0.0042 | -0.002 ± 0.0042 | 0.0155 ± 0.016 | -0.0105 ± 0.0021 | -0.35 ± 0.031 | -0.006 ± 0.0085 | -0.0145 ± 0.005 | -0.04 ± 0.023 | 0.007 ± 0.016 | 0.002 ± 0.0057 | -0.001 ± 0.0014
